Values of other authors as cited in US20050158402A1, “Preparation of Chinese herbal composite recipe used in environmental sanitation” (priority 2004, published 2005).
“Also recorded” adds a separate entry of the source.

How the values were obtained:
B-streptococcus = conditions: 1% matrine, in vitro
Staphylococcus aureaus = conditions: 1% matrine, in vitro
Shigella = conditions: 1% matrine, in vitro
E. Coli = conditions: 1% matrine, in vitro
Proteus = conditions: 1% matrine, in vitro
Shigella species = conditions: in vitro
[1] = test system: type A hemolytic Streptococcus

## C/C(=C/CC[C@]1(C)C2C[C@@H]3[C@H](C2)C31C)CO [α - santol]
bacteria
  anti-bacteria effects: The α - santol and β -santol show stronger anti-bacteria

## O=C1CCC[C@@H]2[C@H]3CCCN4CCC[C@@H](CN12)[C@@H]34 [matrine]
B-streptococcus
  bacteria inhibitive effects on B-streptococcus: bacteria inhibitive effects on Shigella, E. Coli, Proteus,
Staphylococcus aureaus
  bacteria inhibitive effects on Staphylococcus aureaus: bacteria inhibitive effects on Shigella, E. Coli, Proteus,
Shigella
  bacteria inhibitive effects on Shigella: bacteria inhibitive effects on Shigella, E. Coli, Proteus,
E. Coli
  bacteria inhibitive effects on E. Coli: bacteria inhibitive effects on Shigella, E. Coli, Proteus,
Proteus
  bacteria inhibitive effects on Proteus: bacteria inhibitive effects on Shigella, E. Coli, Proteus,

## evodiamine
Columbia SK viruses
  anti-viruses effect on rats infected by Columbia SK viruses: anti-viruses effect; also recorded: anti-virus effect

## C=C1[C@@H]2CC[C@@H](C2)[C@@]1(C)CC/C=C(/C)CO [β -santol]
bacteria
  anti-bacteria effects: The α - santol and β -santol show stronger anti-bacteria

## CC[C@@H]1[C@H]2CCCCN3[C@H]2[C@H](C[C@H]3[C@@H]2C[C@H](C)C(=O)O2)[C@@H]2[C@H]1OC(=O)[C@H]2C [tuberostemonine]
Ascarid
  paralyze Ascarid: can paralyze

## santol
Shigella species
  effective to Shigella species: effective

## Cc1cc(O)c(C(=O)CCC(C)C)c(=O)o1 [pogostone]
Penicillum
  inhibit the growth of fungi such as Penicillum: 22(7): 318) The pogostone can inhibit the growth of fungi
C. albicans
  inhibitive effects on C. albicans: The pogostone show apparently inhibitive effects on fungi
Rhizopus stolonifer
  inhibitive effects on Rhizopus stolonifer: The pogostone show apparently inhibitive effects on fungi
[1]
  inhibitive effect on type A hemolytic Streptococcus: stolonifer. It shows certain degree of inhibitive effect on type
Cryptococcus neoformans
  inhibitive effects on Cryptococcus neoformans: The pogostone show apparently inhibitive effects on fungi
